Like-named read-outs stand apart in the source and are kept apart here.
How the values were obtained:
[1] = system: HeLa cells; test: Proliferation assay, crystal violet (Method 3); type: cell-based, human; details: 4 days, read-out: Inhibition of HeLa cell proliferation IC50
Description: Cultivated tumour cells (HeLa, human cervical tumour cells, ATCC CCL-2; NCI-H460, human non-small cell lung carcinoma cells, ATCC HTB-177; DU 145, hormone-independent human prostate carcinoma cells, ATCC HTB-81; HeLa-MaTu-ADR, multidrug-resistant human cervical carcinoma cells, EPO-GmbH Berlin; Caco-2, human colorectal carcinoma cells, ATCC HTB-37; B16F10, mouse melanoma cells, ATCC CRL-6475) were plated at a density of 5,000 cells/well (DU145, HeLa-MaTu-ADR), 3,000 cells/well (NCI-H460, HeLa), 1,500 cells/well (Caco-2), or 1,000 cells/well (B16F10) in a 96-well multititer plate in 200 μL of their respective growth medium supplemented 10% fetal calf serum. After 24 hours, the cells of one plate (zero-point plate) were stained with crystal violet (see below), while the medium of the other plates was supplemented with the test substances in various concentrations (0 μM, as well as in the range of 0.0001-10 μM; the final concentration of the solvent dimethyl sulfoxide was adjusted to 0.1%) using a Hewlett-Packard HP D300 Digital Dispenser. The cells were incubated for 4 days in the presence of test substances. Cell proliferation was determined by staining the cells with crystal violet: the cells were fixed by adding 20 μl/measuring point of an 11% glutaric aldehyde solution for 15 minutes at room temperature. After three washing cycles of the fixed cells with water, the plates were dried at room temperature. The cells were stained by adding 100 μl/measuring point of a 0.1% crystal violet solution (pH 3.0). After three washing cycles of the stained cells with water, the plates were dried at room temperature. The dye was dissolved by adding 100 μl/measuring point of a 10% acetic acid solution. The extinction was determined by photometry at a wavelength of 595 nm. The change of cell number, in percent, was calculated by normalization of the measured values to the extinction values of the zero-point plate (=0%) and the extinction of the untreated (0 μm) cells (=100%). The IC50 values (inhibitory concentration at 50% of maximal effect) were determined by means of a 4 parameter fit.

[2] = target: T1, CDK2/CycE (Homo sapiens, UniProt P24941); test: CDK2/CycE high ATP kinase assay (TR-FRET, Method 2b); type: biochemical; details: 2 mM ATP
T1 construct: GST; purchased ProQinase GmbH (Freiburg, Germany); host or cells: insect cells (Sf9)
Description: 2b. CDK2/CycE High ATP Kinase Assay:
CDK2/CycE-inhibitory activity of compounds of the present invention at 2 mM adenosine-tri-phosphate (ATP) was quantified employing the CDK2/CycE TR-FRET (TR-FRET=Time Resolved Fluorescence Resonance Energy Transfer) assay as described in the following paragraphs.
Recombinant fusion proteins of GST and human CDK2 and of GST and human CycE, expressed in insect cells (Sf9) and purified by Glutathion-Sepharose affinity chromatography, were purchase from ProQinase GmbH (Freiburg, Germany). As substrate for the kinase reaction biotinylated peptide biotin-Ttds-YISPLKSPYKISEG (C-terminus in amid form) was used which can be purchased e.g. from the company JERINI peptide technologies (Berlin, Germany).
For the assay 50 nl of a 100 fold concentrated solution of the test compound in DMSO was pipetted into a black low volume 384 well microtiter plate (Greiner Bio-One, Frickenhausen, Germany), 2 μl of a solution of CDK2/CycE in aqueous assay buffer [50 mM Tris/HCl pH 8.0, 10 mM MgCl2, 1.0 mM dithiothreitol, 0.1 mM sodium ortho-vanadate, 0.01% (v/v) Nonidet-P40 (Sigma)] were added and the mixture was incubated for 15 min at 22° C. to allow pre-binding of the test compounds to the enzyme before the start of the kinase reaction. Then the kinase reaction was started by the addition of 3 μl of a solution ATP (3.33 mM=>final conc. in the 5 μl assay volume is 2 mM) and substrate (1.25 μM=>final conc. in the 5 μl assay volume is 0.75 μM) in assay buffer and the resulting mixture was incubated for a reaction time of 25 min at 22° C. The concentration of CDK2/CycE was adjusted depending of the activity of the enzyme lot and was chosen appropriate to have the assay in the linear range, typical concentrations were in the range of 15 ng/ml. The reaction was stopped by the addition of 5 μl of a solution of TR-FRET detection reagents (0.2 μM streptavidine-XL665 [Cisbio Bioassays, Codolet, France] and 1 nM anti-RB(pSer807/pSer811)-antibody from BD Pharmingen [#558389] and 1.2 nM LANCE EU-W1024 labeled anti-mouse IgG antibody [Perkin-Elmer, product no. AD0077, as an alternative a Terbium-cryptate-labeled anti-mouse IgG antibody from Cisbio Bioassays can be used]) in an aqueous EDTA-solution (100 mM EDTA, 0.2% (w/v) bovine serum albumin in 100 mM HEPES pH 7.5).
The resulting mixture was incubated 1 h at 22° C. to allow the formation of complex between the phosphorylated biotinylated peptide and the detection reagents. Subsequently the amount of phosphorylated substrate was evaluated by measurement of the resonance energy transfer from the Eu-chelate to the streptavidine-XL. Therefore, the fluorescence emissions at 620 nm and 665 nm after excitation at 350 nm were measured in a TR-FRET reader, e.g. a Rubystar (BMG Labtechnologies, Offenburg, Germany) or a Viewlux (Perkin-Elmer). The ratio of the emissions at 665 nm and at […] was taken as the measure for the amount of phosphorylated substrate. The data were normalised (enzyme reaction without inhibitor=0% inhibition, all other assay components but no enzym=100% inhibition).

| IC50 [1] [nM] | IC50 ([1]; Homo sapiens, 96 h) [nM] | IC50 [2] [nM] | Structure (SMILES) |
| --- | --- | --- | --- |
|  | 33 | 253 | CC(C)(C)OC(=O)N=S(C)(=O)Cc1cc2nc(c1)Nc1cc(c(F)cn1)-c1ccc(F)cc1OCCCCCN2 (racemic) [Example 9, (rac)-tert-butyl[{[17,21-difluoro-2,3,4,5,6,7-hexahydro-13H-12,8-(azeno)-14,18-(metheno)-1,7,13,15-benzoxatriazacycloicosin-10-yl]methyl}(methyl)oxido-λ^6-sulfanylidene]carbamate] |
|  | 14 | 102 | CS(=N)(=O)Cc1cc2nc(c1)Nc1cc(c(F)cn1)-c1ccc(F)cc1OCCCCCN2 (racemic) [Example 10, (rac)-17,21-difluoro-10-[(S-methylsulfonimidoyl)methyl]-2,3,4,5,6,7-hexahydro-13H-12,8-(azeno)-14,18-(metheno)-1,7,13,15-benzoxatriazacycloicosine] |
|  | 10 | 80 | CN1CCCCOc2cc(F)ccc2-c2cc(ncc2F)Nc2cc(CS(C)(=N)=O)cc1n2 (racemic) [Example 11, (rac)-16,20-difluoro-6-methyl-9-[(S-methylsulfonimidoyl)methyl]-3,4,5,6-tetrahydro-2H-7,11-(azeno)-17,13-(metheno)-1,6,12,14-benzoxatriazacyclononadecine] |
|  | 78 | 1280 | CC(C)(C)OC(=O)N=S(C)(=O)Cc1cc2cc(c1)OCCCNc1cc(F)ccc1-c1nc(ncc1F)N2 (racemic) [Example 13, (rac)-tert-butyl[{[15,19-difluoro-1,2,3,4-tetrahydro-16,12-(azeno)-6,10-(metheno)-5,1,11,13-benzoxatriazacyclooctadecin-8(11H)-yl]methyl}(methyl)oxido-λ^6-sulfanylidene]carbamate] |
|  | 33 | 3350 | CC(C)(C)OC(=O)N=S(C)(=O)Cc1cc2cc(c1)OCCCCNc1cc(F)ccc1-c1nc(ncc1F)N2 (racemic) [Example 15, (rac)-tert-butyl[{[16,20-difluoro-2,3,4,5-tetrahydro-1H,12H-13,17-(azeno)-11,7-(metheno)-6,1,12,14-benzoxatriazacyclononadecin-9-yl]methyl}(methyl)oxido-λ^6-sulfanylidene]carbamate] |
|  | 10 | 227 | CS(=N)(=O)Cc1cc2cc(c1)OCCCCNc1cc(F)ccc1-c1nc(ncc1F)N2 (racemic) [Example 16, (rac)-16,20-difluoro-9-[(S-methylsulfonimidoyl)methyl]-2,3,4,5-tetrahydro-1H-17,13-(azeno)-7,11-(metheno)-6,1,12,14-benzoxatriazacyclononadecine] |
|  |  | 1320 | CN1CCCCOc2cc(F)ccc2-c2nc(ncc2F)Nc2cc(CS(C)(=N)=O)cc1c2 (racemic) [Example 23, (rac)-16,20-difluoro-6-methyl-9-[(S-methylsulfonimidoyl)methyl]-3,4,5,6-tetrahydro-2H,12H-13,17-(azeno)-11,7-(metheno)-1,6,12,14-benzoxatriazacyclononadecine] |
|  |  | > 20000 | CC(C)(C)OC(=O)N=S(C)(=O)Cc1cc2cc(c1)Nc1ncc(F)c(n1)-c1ccc(F)cc1OCCCCN2 (racemic) [Example 24, (rac)-tert-butyl[{[16,20-difluoro-3,4,5,6-tetrahydro-2H,12H-13,17-(azeno)-11,7-(metheno)-1,6,12,14-benzoxatriazacyclononadecin-9-yl]methyl}(methyl)oxido-λ^6-sulfanylidene]carbamate] |

Second part, the molecule before the results:

| Structure (SMILES) | IC50 [1] [nM] | IC50 ([1]; Homo sapiens, 96 h) [nM] | IC50 [2] [nM] |
| --- | --- | --- | --- |
| CS(=O)(Cc1cc2nc(c1)Nc1cc(c(F)cn1)-c1ccc(F)cc1OCCCCN2)=NC(=O)OCc1ccccc1 (racemic) [Example 2, (rac)-Benzyl[{[16,20-difluoro-3,4,5,6-tetrahydro-2H,12H-11,7-(azeno)-13,17-(metheno)-1,6,12,14-benzoxatriazacyclononadecin-9-yl]methyl}(methyl)oxido-λ^6-sulfanylidene]carbamate] | > 100 | 77 | 8050 |
| CS(=N)(=O)Cc1cc2nc(c1)Nc1cc(c(F)cn1)-c1ccc(F)cc1OCCCCN2 (racemic) [Example 3, (rac)-16,20-Difluoro-9-[(S-methylsulfonimidoyl)methyl]-3,4,5,6-tetrahydro-2H,12H-11,7-(azeno)-13,17-(metheno)-1,6,12,14-benzoxatriazacyclononadecine] |  |  | 650 |
| C[S+]([O-])Cc1cc2nc(c1)OCCCCc1cc(F)ccc1-c1cc(ncc1F)N2 (racemic) [Example 5, (rac)-2,18-Difluoro-9-[(methylsulfinyl)methyl]-13,14,15,16-tetrahydro-6H-7,11-(azeno)-5,1-(metheno)-12,4,6-benzoxadiazacyclooctadecine] |  | 955 | 8250 |
| CC(C)(C)OC(=O)N=S(C)(=O)Cc1cc2nc(c1)Nc1cc(c(F)cn1)-c1ccc(F)cc1OCCCN2 (racemic) [Example 7, (rac)-tert-butyl[{[15,19-difluoro-2,3,4,5-tetrahydro-11H-10,6-(azeno)-16,12-(metheno)-1,5,11,13-benzoxatriazacyclooctadecin-8-yl]methyl}(methyl)oxido-λ^6-sulfanylidene]carbamate] |  | 32 | 61 |
| CS(=N)(=O)Cc1cc2nc(c1)Nc1cc(c(F)cn1)-c1ccc(F)cc1OCCCN2 (racemic) [Example 8, (rac)-15,19-difluoro-8-[(S-methylsulfonimidoyl)methyl]-2,3,4,5-tetrahydro-11H-10,6-(azeno)-16,12-(metheno)-1,5,11,13-benzoxatriazacyclooctadecine] |  | 3.3 | 29 |
| CS(=N)(=O)Cc1cc2cc(c1)OCCCNc1cc(F)ccc1-c1nc(ncc1F)N2 (racemic) [Example 14, rac-15,19-difluoro-8-[(S-methylsulfonimidoyl)methyl]-1,2,3,4-tetrahydro-16,12-(azeno)-6,10-(metheno)-5,1,11,13-benzoxatriazacyclooctadecine] |  |  | 94 |
| CSCc1cc2nc(c1F)N(C)CCCCOc1cc(F)ccc1-c1cc(ncc1F)N2 [Example 12, 8,16,20-trifluoro-6-methyl-9-[(methylsulfanyl)methyl]-3,4,5,6-tetrahydro-2H,12H-11,7-(azeno)-13,17-(metheno)-1,6,12,14-benzoxatriazacyclononadecine] |  | 851 |  |

Source: patent US10214542B2, “Modified macrocyclic compounds” (BAYER PHARMA AKTIENGESELLSCHAFT, priority 2015, dated 2019)
